Experimental data from patent US20130178472A1, “ARYLSULFONAMIDE PYRIDINE-PYRIDINONE DERIVATIVES, PREPARATION OF SAME, AND THERAPEUTIC USE THEREOF” (SANOFI, priority 2010, published 2013).
Where a name gives a salt, the structure may show the parent alone.

Target: T1, fusion protein Tel/PDGF-R beta (BaF3 Tel/PDGF cells) (Homo sapiens, UniProt P09619)
T1 construct: the transmembrane and intracellular part of the PDGF-R beta receptor; N-terminal part of transcription factor Tel (ETV6, own knowledge: UniProt P41212), containing the oligomerization domain; expressed in transfected cells; host or cells: murine hematopoietic cell line BaF/3 (BaF3 Tel/PDGF); the other entry of the earlier key: ETV6 (P41212, Transcription factor ETV6)
Assay: Inhibition of PDGF beta receptor tyrosine kinase activity: proliferation of BaF3 Tel/PDGF cells
Type: cell-based, murine
Settings: 72 h incubation, viable cells by cellular ATP (CellTiter-Glo); read-out: IC50, concentration which inhibits 50% of the proliferation of the Baf3 tel/PDGF cells
From the text: The inhibitory activity on the PDGF receptor kinases is given by the concentration which inhibits 50% of the proliferation activity of Baf3 tel/PDGF cells respectively. The inhibitory activity on p70S6 kinase is given by the concentration which inhibits 50% of the phosphorylation of the peptide substrate derived from the S6 ribosomal protein (AKRRRLSSLRA, Upstate).
Measurement of the inhibition of the PDGF beta receptor (PDGF-Rβ) tyrosine kinase activity (Baf-3 tel/PDGFRβ):
This test consists in evaluating the effects of the compounds on the PDGF beta receptor tyrosine kinase activity.
The inhibitory effect of the compounds according to the invention toward the PDGF-R receptor tyrosine kinase activity was evaluated on the hematopoietic murine cell line BaF/3 transfected with a plasmid encoding the fusion protein Tel/PDGF-R beta. This fusion protein is found in chronic myelomonocytic myeloid leukemias (CMML). It comprises the N-terminal part of the transcription factor Tel and the transmembrane and intracellular part of the PDGF-R beta receptor. This fusion protein is present in dimerized form (presence of an oligomerization domain in the N-terminal part of Tel) and therefore leads to the constitutive activity of the PDGF-R beta kinase domain. This BaF3 Tel/PDGF line has been described in the literature several times and in particular in detail in the article by CARROLL, M. et al., PNAS, 1996, 93, 14845-14850, CARROLL, M. et al., Blood 2002, 99, 14845-14850.
The BaF3 Tel/PDGF cells are washed with phosphate buffer and inoculated in 96-well plates, at the density of 5×10^4 cells/ml ([…]), in RPMI 1640 containing 10% FCS, in the presence or absence of the compounds to be tested. After 72 h of incubation, the viable cells are quantified by measuring the cellular ATP using the kit CellTiter-Glo®(Promega, Cat G7571). The cells are treated according to the instructions given by the kit supplier and the luminescence is measured with the aid of a Luminoskan (Ascent, Labsystem) with the following parameters: measurement: single; integration time: 1000 ms, lag time: 5 s.
It is thus apparent that the compounds according to the invention have an inhibitory activity on the PDGF-R beta tyrosine kinase activity. This activity is given by the concentration which inhibits 50% of the proliferation of the Baf3 tel/PDGF cells (IC50).

T1 sequence (P09619 with tags, fused parts or gaps): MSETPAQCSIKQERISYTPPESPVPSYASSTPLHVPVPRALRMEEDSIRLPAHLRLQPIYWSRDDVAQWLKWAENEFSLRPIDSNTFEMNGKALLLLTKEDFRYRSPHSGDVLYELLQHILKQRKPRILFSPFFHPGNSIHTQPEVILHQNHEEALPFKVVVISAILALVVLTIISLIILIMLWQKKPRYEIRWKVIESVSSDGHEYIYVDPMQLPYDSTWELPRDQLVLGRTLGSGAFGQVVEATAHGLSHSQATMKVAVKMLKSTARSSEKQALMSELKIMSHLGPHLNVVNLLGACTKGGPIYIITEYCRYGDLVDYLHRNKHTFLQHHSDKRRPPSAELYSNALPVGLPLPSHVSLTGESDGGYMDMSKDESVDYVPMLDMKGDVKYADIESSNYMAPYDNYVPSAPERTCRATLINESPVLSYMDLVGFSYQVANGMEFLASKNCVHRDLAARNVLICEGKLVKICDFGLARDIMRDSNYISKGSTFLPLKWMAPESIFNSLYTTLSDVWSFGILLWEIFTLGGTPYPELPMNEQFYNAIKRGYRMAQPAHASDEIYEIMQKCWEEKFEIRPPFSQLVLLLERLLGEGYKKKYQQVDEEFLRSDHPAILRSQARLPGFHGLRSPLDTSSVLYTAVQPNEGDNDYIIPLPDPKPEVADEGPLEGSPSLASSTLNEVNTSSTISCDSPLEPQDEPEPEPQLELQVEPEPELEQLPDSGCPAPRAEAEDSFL

SMILES	IC50 [nM]
CCn1c(N)c(C(=O)NC)c(=O)c2ccc(-c3ccc(NS(=O)(=O)c4cccc(F)c4)c(F)c3)nc21 [compound No. 2, 2-amino-1-ethyl-7-(3-fluoro-4-{[(3-fluorophenyl)sulfonyl]amino}phenyl)-N-methyl-4-oxo-1,4-dihydro-1,8-naphthyridine-3-carboxamide]	36
CCn1c(N)c(C(=O)NC)c(=O)c2ccc(-c3ccc(NS(=O)(=O)c4ccccc4F)c(F)c3)nc21 [compound No. 20, 2-amino-1-ethyl-7-(3-fluoro-4-{[(2-fluorophenyl)sulfonyl]amino}phenyl)-N-methyl-4-oxo-1,4-dihydro-1,8-naphthyridine-3-carboxamide]	280
CCn1c(N)c(C(=O)NC)c(=O)c2ccc(-c3ccc(NS(=O)(=O)c4ccc(F)cc4)c(F)c3)nc21 [compound No. 24, 2-amino-1-ethyl-7-(3-fluoro-4-{[(4-fluorophenyl)sulfonyl]amino}phenyl)-N-methyl-4-oxo-1,4-dihydro-1,8-naphthyridine-3-carboxamide]	24

System: not given
Assay: not given
Settings: not given

SMILES	melting point [°C]
CCn1c(N)c(C(=O)NC)c(=O)c2ccc(-c3ccc(NS(=O)(=O)Cc4cccnc4)c(F)c3)nc21 (as salt: HCl) [compound No. 1, 2-amino-1-ethyl-7-(3-fluoro-4-{[(pyridin-3-ylmethyl)sulfonyl]amino}phenyl)-N-methyl-4-oxo-1,4-dihydro-1,8-naphthyridine-3-carboxamide]	220 to 223
CCn1c(N)c(C(=O)NC)c(=O)c2ccc(-c3ccc(NS(=O)(=O)CCN(C)C)c(F)c3)nc21 (as salt: HCl) [compound No. 4, 2-amino-7-[4-({[2-(dimethylamino)ethyl]sulfonyl}amino)-3-fluorophenyl]-1-ethyl-N-methyl-4-oxo-1,4-dihydro-1,8-naphthyridine-3-carboxamide]	268 to 270
CCn1c(N)c(C(=O)NC)c(=O)c2ccc(-c3ccc(NS(=O)(=O)Cc4cccc(N)c4)c(F)c3)nc21 (as salt: HCl) [compound No. 5, 2-amino-7-(4-{[(3-aminobenzyl)sulfonyl]amino}-3-fluorophenyl)-1-ethyl-N-methyl-4-oxo-1,4-dihydro-1,8-naphthyridine-3-carboxamide]	> 260
CCn1c(N)c(C(=O)NC)c(=O)c2ccc(-c3ccc(NS(=O)(=O)c4cn(C)cn4)c(F)c3)nc21 (as salt: HCl) [compound No. 6, 2-amino-1-ethyl-7-(3-fluoro-4-{[(1-methyl-1H-imidazol-4-yl)sulfonyl]amino}phenyl)-N-methyl-4-oxo-1,4-dihydro-1,8-naphthyridine-3-carboxamide]	> 300
CCn1c(N)c(C(=O)NC)c(=O)c2ccc(-c3ccc(NS(=O)(=O)c4ccc(N5CCOCC5)nc4)c(F)c3)nc21 (as salt: HCl) [compound No. 26, 2-amino-1-ethyl-7-[3-fluoro-4-({[6-(morpholin-4-yl)pyridin-3-yl]sulfonyl}amino)phenyl]-N-methyl-4-oxo-1,4-dihydro-1,8-naphthyridine-3-carboxamide]	> 260
CCn1c(N)c(C(=O)NC)c(=O)c2ccc(-c3ccc(NS(=O)(=O)Cc4ccccn4)c(F)c3)nc21 (as salt: HCl) [compound No. 27, 2-amino-1-ethyl-7-(3-fluoro-4-{[(pyridin-2-ylmethyl)sulfonyl]amino}phenyl)-N-methyl-4-oxo-1,4-dihydro-1,8-naphthyridine-3-carboxamide]	260
CCn1c(N)c(C(=O)NC)c(=O)c2ccc(-c3ccc(NS(=O)(=O)c4cccc(F)c4)c(F)c3)nc21 [compound No. 2, 2-amino-1-ethyl-7-(3-fluoro-4-{[(3-fluorophenyl)sulfonyl]amino}phenyl)-N-methyl-4-oxo-1,4-dihydro-1,8-naphthyridine-3-carboxamide]	256
C=CS(=O)(=O)Nc1ccc(-c2ccc3c(=O)c(C(=O)NC)c(N)n(CC)c3n2)cc1F [compound No. 3, 2-amino-7-{4-[(ethenylsulfonyl)amino]-3-fluorophenyl}-1-ethyl-N-methyl-4-oxo-1,4-dihydro-1,8-naphthyridine-3-carboxamide]	> 260
CCCCS(=O)(=O)Nc1ccc(-c2ccc3c(=O)c(C(=O)NC)c(N)n(CC)c3n2)cc1F [compound No. 7, 2-amino-7-{4-[(butylsulfonyl)amino]-3-fluorophenyl}-1-ethyl-N-methyl-4-oxo-1,4-dihydro-1,8-naphthyridine-3-carboxamide]	165 to 167
CCn1c(N)c(C(=O)NC)c(=O)c2ccc(-c3ccc(NS(=O)(=O)c4c(Cl)cccc4Cl)c(F)c3)nc21 [compound No. 11, 2-amino-7-(4-{[(2,6-dichlorophenyl)sulfonyl]amino}-3-fluorophenyl)-1-ethyl-N-methyl-4-oxo-1,4-dihydro-1,8-naphthyridine-3-carboxamide]	321
CCn1c(N)c(C(=O)NC)c(=O)c2ccc(-c3ccc(NS(=O)(=O)c4cc(Cl)ccc4Cl)cc3Cl)nc21 [compound No. 12, 2-amino-7-(2-chloro-4-{[(2,5-dichlorophenyl)sulfonyl]amino}phenyl)-1-ethyl-N-methyl-4-oxo-1,4-dihydro-1,8-naphthyridine-3-carboxamide]	323
CCn1c(N)c(C(=O)NC)c(=O)c2ccc(-c3ccc(NS(=O)(=O)c4cccc(Cl)c4Cl)cc3Cl)nc21 [compound No. 13, 2-amino-7-(2-chloro-4-{[(2,3-dichlorophenyl)sulfonyl]amino}phenyl)-1-ethyl-N-methyl-4-oxo-1,4-dihydro-1,8-naphthyridine-3-carboxamide]	239
CCn1c(N)c(C(=O)NC)c(=O)c2ccc(-c3ccc(NS(=O)(=O)c4cccc(Cl)c4Cl)c(C)c3)nc21 [compound No. 15, 2-amino-7-(4-{[(2,3-dichlorophenyl)sulfonyl]amino}-3-methylphenyl)-1-ethyl-N-methyl-4-oxo-1,4-dihydro-1,8-naphthyridine-3-carboxamide]	299
CCn1c(N)c(C(=O)NC)c(=O)c2ccc(-c3ccc(NS(C)(=O)=O)cc3)nc21 [compound No. 16, 2-amino-1-ethyl-N-methyl-7-{4-[(methylsulfonyl)amino]phenyl}-4-oxo-1,4-dihydro-1,8-naphthyridine-3-carboxamide]	> 300
CCn1c(N)c(C(=O)NC)c(=O)c2ccc(-c3ccc(NS(=O)(=O)c4cccc(Cl)c4Cl)cc3)nc21 [compound No. 17, 2-amino-7-(4-{[(2,3-dichlorophenyl)sulfonyl]amino}phenyl)-1-ethyl-N-methyl-4-oxo-1,4-dihydro-1,8-naphthyridine-3-carboxamide]	210
CCn1c(N)c(C(=O)NC)c(=O)c2ccc(-c3ccc(NS(=O)(=O)c4ccccc4Cl)cc3)nc21 [compound No. 19, 2-amino-7-(4-{[(2-chlorophenyl)sulfonyl]amino}phenyl)-1-ethyl-N-methyl-4-oxo-1,4-dihydro-1,8-naphthyridine-3-carboxamide]	> 260
CCn1c(N)c(C(=O)NC)c(=O)c2ccc(-c3ccc(NS(=O)(=O)c4ccccc4F)c(F)c3)nc21 [compound No. 20, 2-amino-1-ethyl-7-(3-fluoro-4-{[(2-fluorophenyl)sulfonyl]amino}phenyl)-N-methyl-4-oxo-1,4-dihydro-1,8-naphthyridine-3-carboxamide]	> 260
CCn1c(N)c(C(=O)NC)c(=O)c2ccc(-c3ccc(NS(=O)(=O)c4ccc(Cl)cc4)c(F)c3)nc21 [compound No. 21, 2-amino-7-(4-{[(4-chlorophenyl)sulfonyl]amino}-3-fluorophenyl)-1-ethyl-N-methyl-4-oxo-1,4-dihydro-1,8-naphthyridine-3-carboxamide]	> 260
CCn1c(N)c(C(=O)NC)c(=O)c2ccc(-c3ccc(NS(=O)(=O)c4cccc(Cl)c4)c(F)c3)nc21 [compound No. 22, 2-amino-7-(4-{[(3-chlorophenyl)sulfonyl]amino}-3-fluorophenyl)-1-ethyl-N-methyl-4-oxo-1,4-dihydro-1,8-naphthyridine-3-carboxamide]	> 260
CCn1c(N)c(C(=O)NC)c(=O)c2ccc(-c3ccc(NS(=O)(=O)c4ccc(F)c(F)c4)c(F)c3)nc21 [compound No. 23, 2-amino-7-(4-{[(3,4-difluorophenyl)sulfonyl]amino}-3-fluorophenyl)-1-ethyl-N-methyl-4-oxo-1,4-dihydro-1,8-naphthyridine-3-carboxamide]	> 260
CCn1c(N)c(C(=O)NC)c(=O)c2ccc(-c3ccc(NS(=O)(=O)c4ccc(F)cc4)c(F)c3)nc21 [compound No. 24, 2-amino-1-ethyl-7-(3-fluoro-4-{[(4-fluorophenyl)sulfonyl]amino}phenyl)-N-methyl-4-oxo-1,4-dihydro-1,8-naphthyridine-3-carboxamide]	> 260
CCn1c(N)c(C(=O)NC)c(=O)c2ccc(-c3ccc(NS(=O)(=O)c4cccc(OC)c4)c(F)c3)nc21 [compound No. 25, 2-amino-1-ethyl-7-(3-fluoro-4-{[(3-methoxyphenyl)sulfonyl]amino}phenyl)-N-methyl-4-oxo-1,4-dihydro-1,8-naphthyridine-3-carboxamide]	> 260
